# Assay results as given in ChEMBL document CHEMBL3045835, “Comparative study of conventional and microwave-assisted synthesis of some Schiff bases and their potential as antimicrobial agents” (2012).
# Legend:
# Assay type in all cases: functional
# [1] = system: Aspergillus niger; experiment: Antifungal activity against Aspergillus niger MTCC 2546 at 1500 ug/ml after 18 hr by cup-plate method; conditions: MTCC 2546, 18 h, read-out: DIZ
# [2] = system: Bacillus subtilis; experiment: Antibacterial activity against Bacillus subtilis MTCC 441 at 1000 ug/ml after 18 hr by cup plate method; conditions: MTCC 441, 18 h, read-out: DIZ
# [3] = system: Pseudomonas fluorescens; experiment: Antibacterial activity against Pseudomonas fluorescens MTCC 2421 at 1500 ug/ml after 18 hr by cup-plate method; conditions: MTCC 2421, 18 h, read-out: DIZ
# [4] = system: Pseudomonas fluorescens; experiment: Antibacterial activity against Pseudomonas fluorescens MTCC 2421 at 200 ug/ml after 18 hr by cup-plate method; conditions: MTCC 2421, 18 h, read-out: DIZ
# [5] = system: Bacillus pumilus; experiment: Antibacterial activity against Bacillus pumilus MTCC 1456 at 100 ug/ml after 18 hr by cup-plate method; conditions: MTCC 1456, 18 h, read-out: DIZ
# [6] = system: Escherichia coli; experiment: Antibacterial activity against Escherichia coli MTCC 1573 after 24 hr by broth dilution method; conditions: MTCC 1573, 24 h
# [7] = system: Micrococcus luteus; experiment: Antibacterial activity against Micrococcus luteus MTCC 1538 at 500 ug/ml after 18 hr by cup-plate method; conditions: MTCC 1538, 18 h, read-out: DIZ
# [8] = system: Micrococcus luteus; experiment: Antibacterial activity against Micrococcus luteus MTCC 1538 at 1500 ug/ml after 18 hr by cup-plate method; conditions: MTCC 1538, 18 h, read-out: DIZ
# [9] = system: Bacillus pumilus; experiment: Antibacterial activity against Bacillus pumilus MTCC 1456 at 1000 ug/ml after 18 hr by cup-plate method; conditions: MTCC 1456, 18 h, read-out: DIZ
# [10] = system: Penicillium chrysogenum; experiment: Antifungal activity against Penicillium chrysogenum MTCC 161 at 200 ug/ml after 18 hr by cup-plate method; conditions: MTCC 161, 18 h, read-out: DIZ
# [11] = system: Pseudomonas aeruginosa; experiment: Antibacterial activity against Pseudomonas aeruginosa MTCC 424 at 100 ug/ml after 18 hr by cup-plate method; conditions: MTCC 424, 18 h, read-out: DIZ
# [12] = system: Escherichia coli; experiment: Antibacterial activity against Escherichia coli MTCC 1573 at 1500 ug/ml after 18 hr by cup-plate method; conditions: MTCC 1573, 18 h, read-out: DIZ
# [13] = system: Penicillium chrysogenum; experiment: Antifungal activity against Penicillium chrysogenum MTCC 161 after 24 hr by broth dilution method; conditions: MTCC 161, 24 h
# [14] = system: Micrococcus luteus; experiment: Antibacterial activity against Micrococcus luteus MTCC 1538 at 100 ug/ml after 18 hr by cup-plate method; conditions: MTCC 1538, 18 h, read-out: DIZ
# [15] = system: Pseudomonas aeruginosa; experiment: Antibacterial activity against Pseudomonas aeruginosa MTCC 424 at 1000 ug/ml after 18 hr by cup-plate method; conditions: MTCC 424, 18 h, read-out: DIZ
# [16] = system: Pseudomonas fluorescens; experiment: Antibacterial activity against Pseudomonas fluorescens MTCC 2421 at 500 ug/ml after 18 hr by cup-plate method; conditions: MTCC 2421, 18 h, read-out: DIZ
# [17] = system: Bacillus subtilis; experiment: Antibacterial activity against Bacillus subtilis MTCC 441 at 200 ug/ml after 18 hr by cup plate method; conditions: MTCC 441, 18 h, read-out: DIZ
# [18] = system: Staphylococcus aureus; experiment: Antibacterial activity against Staphylococcus aureus MTCC 1430 at 1500 ug/ml after 18 hr by cup-plate method; conditions: MTCC 1430, 18 h, read-out: DIZ
# [19] = system: Escherichia coli; experiment: Antibacterial activity against Escherichia coli MTCC 1573 at 200 ug/ml after 18 hr by cup-plate method; conditions: MTCC 1573, 18 h, read-out: DIZ
# [20] = system: Micrococcus luteus; experiment: Antibacterial activity against Micrococcus luteus MTCC 1538 at 1000 ug/ml after 18 hr by cup-plate method; conditions: MTCC 1538, 18 h, read-out: DIZ
# [21] = system: Bacillus subtilis; experiment: Antibacterial activity against Bacillus subtilis MTCC 441 at 100 ug/ml after 18 hr by cup plate method; conditions: MTCC 441, 18 h, read-out: DIZ
# [22] = system: Bacillus subtilis; experiment: Antibacterial activity against Bacillus subtilis MTCC 441 at 500 ug/ml after 18 hr by cup plate method; conditions: MTCC 441, 18 h, read-out: DIZ
# [23] = system: Penicillium chrysogenum; experiment: Antifungal activity against Penicillium chrysogenum MTCC 161 at 100 ug/ml after 18 hr by cup-plate method; conditions: MTCC 161, 18 h, read-out: DIZ
# [24] = system: Pseudomonas aeruginosa; experiment: Antibacterial activity against Pseudomonas aeruginosa MTCC 424 at 200 ug/ml after 18 hr by cup-plate method; conditions: MTCC 424, 18 h, read-out: DIZ
# [25] = system: Pseudomonas fluorescens; experiment: Antibacterial activity against Pseudomonas fluorescens MTCC 2421 at 100 ug/ml after 18 hr by cup-plate method; conditions: MTCC 2421, 18 h, read-out: DIZ
# [26] = system: Penicillium chrysogenum; experiment: Antifungal activity against Penicillium chrysogenum MTCC 161 at 1500 ug/ml after 18 hr by cup-plate method; conditions: MTCC 161, 18 h, read-out: DIZ
# [27] = system: Bacillus pumilus; experiment: Antibacterial activity against Bacillus pumilus MTCC 1456 at 200 ug/ml after 18 hr by cup-plate method; conditions: MTCC 1456, 18 h, read-out: DIZ
smiles,measurement,setting,value
O=c1c(/C=N/c2nc[nH]n2)coc2ccccc12,zone of inhibition at 1500 µg/mL,[1],22 mm
same,zone of inhibition at 1000 µg/mL,[2],18 mm
same,zone of inhibition at 1500 µg/mL,[3],20 mm
same,zone of inhibition at 200 µg/mL,[4],15 mm
same,zone of inhibition at 100 µg/mL,[5],14 mm
same,MIC,[6],400 µg/mL
same,zone of inhibition at 500 µg/mL,[7],16 mm
same,zone of inhibition at 1500 µg/mL,[8],23 mm
same,zone of inhibition at 1000 µg/mL,[9],19 mm
same,zone of inhibition at 200 µg/mL,[10],17 mm
same,zone of inhibition at 100 µg/mL,[11],14 mm
same,zone of inhibition at 1500 µg/mL,[12],18 mm
same,MIC,[13],200 µg/mL
same,zone of inhibition at 100 µg/mL,[14],11 mm
same,zone of inhibition at 1000 µg/mL,[15],18 mm
same,zone of inhibition at 500 µg/mL,[16],17 mm
same,zone of inhibition at 200 µg/mL,[17],16 mm
same,zone of inhibition at 1500 µg/mL,[18],19 mm
same,zone of inhibition at 200 µg/mL,[19],14 mm
same,zone of inhibition at 1000 µg/mL,[20],18 mm
same,zone of inhibition at 100 µg/mL,[21],12 mm
same,zone of inhibition at 500 µg/mL,[22],17 mm
same,zone of inhibition at 100 µg/mL,[23],15 mm
same,zone of inhibition at 200 µg/mL,[24],15 mm
same,zone of inhibition at 100 µg/mL,[25],13 mm
same,zone of inhibition at 1500 µg/mL,[26],22 mm
same,zone of inhibition at 200 µg/mL,[27],16 mm
